Patent publication US20060148674A1, “Therapeutic composition” (priority 2004, published 2006)

How the values were obtained:
[1] = tested on: BT-549 breast cancer cell line; assay: drug resistance of breast cancer cell line; format: cell-based; details: BT-549 compared with MCF-7
alpha/beta III dimer = alpha/beta III dimer (Bos taurus, UniProt Q2T9S0); details: compared with alpha/beta II and alpha/beta IV dimers; cited from earlier work
thioredoxin reductase = target: T1, thioredoxin reductase (Homo sapiens, UniProt Q16881); details: cited from earlier work
T1 sequence (Q16881 1-499 isoform Q16881-5): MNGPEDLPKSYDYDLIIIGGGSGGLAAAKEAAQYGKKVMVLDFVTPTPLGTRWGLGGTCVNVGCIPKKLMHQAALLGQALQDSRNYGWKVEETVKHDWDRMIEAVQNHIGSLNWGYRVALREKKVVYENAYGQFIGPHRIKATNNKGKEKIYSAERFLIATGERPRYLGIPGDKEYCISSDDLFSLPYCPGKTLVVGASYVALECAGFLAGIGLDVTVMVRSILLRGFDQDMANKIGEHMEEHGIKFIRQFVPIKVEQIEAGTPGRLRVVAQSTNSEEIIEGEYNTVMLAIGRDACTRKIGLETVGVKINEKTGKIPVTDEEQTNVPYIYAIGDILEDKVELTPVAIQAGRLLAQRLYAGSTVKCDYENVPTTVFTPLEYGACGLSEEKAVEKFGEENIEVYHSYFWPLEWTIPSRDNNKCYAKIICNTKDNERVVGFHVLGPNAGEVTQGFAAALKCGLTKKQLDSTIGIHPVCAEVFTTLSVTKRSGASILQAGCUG

[2] = target: T2, thioredoxin reductase/thioredoxin (Homo sapiens, UniProt Q16881); details: cited from earlier work
T2 sequence (Q16881 1-499 isoform Q16881-5): T1 sequence (Q16881 1-499 isoform Q16881-5)

alpha/beta IV = details: cited from earlier work
alpha/beta II = target: T3, alpha/beta II (Bos taurus, UniProt Q6B856); details: cited from earlier work
T3 construct: from tissue; host or cells: bovine cerebra

alpha/beta III = target: T4, alpha/beta III (Bos taurus, UniProt Q2T9S0); details: cited from earlier work
T4 construct: from tissue; host or cells: bovine brain (cerebra)

[3] = target: T5, thioredoxin reductase and thioredoxin (Homo sapiens, UniProt P10599+Q16881); details: cited from earlier work
T5 sequence (Q16881 151-649 limits assumed): T1 sequence (Q16881 1-499 isoform Q16881-5)
T5 sequence (P10599 1-105): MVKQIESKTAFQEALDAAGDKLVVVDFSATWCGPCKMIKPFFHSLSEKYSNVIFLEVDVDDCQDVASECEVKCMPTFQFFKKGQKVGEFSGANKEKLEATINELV

[4] = 2.5 mg/kg, mice; cited from earlier work
[5] = tested on: human MCF-7 breast cancer; details: MCF-7 tumor system, scid mice; cited from earlier work
HL-60 leukemia = details: scid mice; a number of the animals without tumor at day 45; cited from earlier work
[6] = tested on: colon tumors of min mouse; details: in the diet at 250 ppm, cited from earlier work
brain tubulin = tested on: brain tubulin; parameters: dose or concentration left out as unconfirmed; details: cited from earlier work
erythrocyte tubulin = target: T6, erythrocyte tubulin (Gallus gallus, UniProt P09207); parameters: dose or concentration left out as unconfirmed; details: cited from earlier work
T6 construct: from tissue; host or cells: chicken erythrocytes
T6 sequence (P09207 whole entry): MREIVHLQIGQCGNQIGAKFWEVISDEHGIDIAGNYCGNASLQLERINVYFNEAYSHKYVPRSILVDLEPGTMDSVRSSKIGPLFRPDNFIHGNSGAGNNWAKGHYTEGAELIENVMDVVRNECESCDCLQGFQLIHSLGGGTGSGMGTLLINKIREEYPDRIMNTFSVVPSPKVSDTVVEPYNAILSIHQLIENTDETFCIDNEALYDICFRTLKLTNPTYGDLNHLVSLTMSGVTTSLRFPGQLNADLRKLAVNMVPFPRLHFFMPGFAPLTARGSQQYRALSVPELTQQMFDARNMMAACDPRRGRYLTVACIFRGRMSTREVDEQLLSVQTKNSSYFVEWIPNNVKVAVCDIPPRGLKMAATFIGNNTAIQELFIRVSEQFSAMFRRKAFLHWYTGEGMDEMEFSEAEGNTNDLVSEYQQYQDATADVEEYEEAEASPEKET

T4 sequence (Q2T9S0 whole entry): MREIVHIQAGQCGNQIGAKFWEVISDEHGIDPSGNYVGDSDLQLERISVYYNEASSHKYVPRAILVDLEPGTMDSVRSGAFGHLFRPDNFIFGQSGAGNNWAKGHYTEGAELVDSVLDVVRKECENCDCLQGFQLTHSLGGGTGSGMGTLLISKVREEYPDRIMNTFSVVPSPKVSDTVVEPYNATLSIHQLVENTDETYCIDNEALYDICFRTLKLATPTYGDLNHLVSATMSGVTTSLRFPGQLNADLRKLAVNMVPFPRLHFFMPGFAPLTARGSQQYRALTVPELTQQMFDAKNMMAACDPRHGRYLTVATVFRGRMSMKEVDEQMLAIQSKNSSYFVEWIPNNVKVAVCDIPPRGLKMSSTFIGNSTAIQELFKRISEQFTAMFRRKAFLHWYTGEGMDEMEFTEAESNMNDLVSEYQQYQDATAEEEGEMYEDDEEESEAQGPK
T4 sequence (P81947 whole entry partner): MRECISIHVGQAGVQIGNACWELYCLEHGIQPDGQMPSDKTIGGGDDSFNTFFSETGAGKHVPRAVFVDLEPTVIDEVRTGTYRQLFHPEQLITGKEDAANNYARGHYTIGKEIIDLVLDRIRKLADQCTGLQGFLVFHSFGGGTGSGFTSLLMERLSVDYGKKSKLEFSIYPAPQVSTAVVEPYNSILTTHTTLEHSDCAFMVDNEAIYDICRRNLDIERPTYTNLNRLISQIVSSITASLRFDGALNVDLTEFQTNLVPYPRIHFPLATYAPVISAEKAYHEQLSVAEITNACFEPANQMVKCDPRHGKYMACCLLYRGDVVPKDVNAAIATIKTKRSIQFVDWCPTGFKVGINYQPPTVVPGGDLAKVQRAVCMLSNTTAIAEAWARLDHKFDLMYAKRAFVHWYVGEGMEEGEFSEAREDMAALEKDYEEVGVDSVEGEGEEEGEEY
alpha/beta III dimer, sequence (Q2T9S0 whole entry): as the sequence (Q2T9S0 whole entry) above
alpha/beta III dimer, sequence (P81947 whole entry partner, looked up): as the sequence (P81947 whole entry partner) above
T3 sequence (Q6B856 whole entry): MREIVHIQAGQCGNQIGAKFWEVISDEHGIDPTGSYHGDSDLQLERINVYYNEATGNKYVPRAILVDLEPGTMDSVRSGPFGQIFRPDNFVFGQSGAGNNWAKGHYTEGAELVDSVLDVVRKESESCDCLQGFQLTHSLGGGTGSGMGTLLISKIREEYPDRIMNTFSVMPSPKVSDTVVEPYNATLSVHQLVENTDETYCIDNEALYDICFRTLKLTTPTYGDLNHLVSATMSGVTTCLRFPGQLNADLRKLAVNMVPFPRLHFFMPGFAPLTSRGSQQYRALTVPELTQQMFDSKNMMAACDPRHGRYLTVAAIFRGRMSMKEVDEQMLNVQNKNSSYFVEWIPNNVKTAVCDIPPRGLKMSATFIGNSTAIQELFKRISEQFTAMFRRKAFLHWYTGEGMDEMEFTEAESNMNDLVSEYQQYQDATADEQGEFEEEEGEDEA
T3 sequence (P81947 whole entry partner): as the sequence (P81947 whole entry partner) above

Compound: CC(=O)O[C@H]1C(=O)[C@@]2(C)[C@H]([C@H](OC(=O)c3ccccc3)[C@]3(O)C[C@H](OC(=O)[C@H](O)[C@@H](NC(=O)c4ccccc4)c4ccccc4)C(C)=C1C3(C)C)[C@]1(OC(C)=O)CO[C@@H]1C[C@@H]2O [paclitaxel]
- resistance of cell line to drug [1]: resistant
- interaction of alpha/beta III dimer with ligand (alpha/beta III dimer): much less strongly

Compound: O=[N+]([O-])C(=C(Sc1ccccc1)Sc1ccccc1)C(Cl)=C(Cl)Cl [NSC 665103]
- inhibition of thioredoxin reductase alone (thioredoxin reductase): did not inhibit thioredoxin reductase alone
- activity in the thioredoxin reductase/thioredoxin-dependent insulin assay [2]: active

Compound: cryptophycin
- resistance of cell line to drug [1]: resistant

Compound: COc1cc(OC)c(Cl)c(-n2c(-c3ccccc3)cc(=O)c(C)c2-c2ccc(F)cc2)c1 [IKP-104]
- apparent dissociation constant for the high-affinity site (Kd1) (alpha/beta IV): greater than those of unfractionated tubulin, alpha/beta II, or alpha/beta III
- apparent dissociation constant for the high-affinity site (Kd1) (alpha/beta II): lower than that of unfractionated tubulin
- apparent dissociation constant for the high-affinity site (Kd1) (alpha/beta III): lower than that of unfractionated tubulin

Compound: CC1=C(CO)C2=C(C)C3(CC3)[C@@](C)(O)C(=O)C2=C1 [irofulven]
- inhibition of thioredoxin reductase and thioredoxin [3]: selectively inhibit both thioredoxin reductase and thioredoxin
- tolerability [4]: tolerable

Compound: CCCCCCCC(=O)OC1C2C(CC1(C)C)C(=O)C13OC1C(=O)C1(CO1)C23C (centres unmarked) [NSC 163027]
- inhibition of thioredoxin reductase alone (thioredoxin reductase): did not inhibit thioredoxin reductase alone
- activity in the thioredoxin reductase/thioredoxin-dependent insulin assay [2]: active

Compound: c1ccc(CSSc2ncc[nH]2)cc1 [DLK-36, benzyl-2-imidazolyl disulfide]
- tumor inhibition [5]: 65%
- antitumor activity against HL-60 leukemia (HL-60 leukemia): showed antitumor activity

Compound: CCC(C)SSc1ncc[nH]1 (centres unmarked) [IV-2, 1-methylpropyl 2-imidazolyl disulfide]
- tumor inhibition [5]: 98%
- antitumor activity against HL-60 leukemia (HL-60 leukemia): showed antitumor activity
- size of remaining tumors ([6]; p<0.001 compared to control): significant reduction
- reduction of the number of tumors in the colon ([6]; p=0.0160): 70%

Compound: CC[C@]1(O)C[C@@H]2CN(CCc3c([nH]c4ccccc34)[C@@](C(=O)OC)(c3cc4c(cc3OC)N(C)[C@H]3[C@@](O)(C(=O)OC)[C@H](OC(C)=O)[C@]5(CC)C=CCN6CC[C@]43[C@@H]65)C2)C1 [vinblastine]
- resistance of cell line to drug [1]: resistant
- brain tubulin aggregated into spirals (brain tubulin): About 42%
- erythrocyte tubulin formed spirals (erythrocyte tubulin): 74%

Compound: Cc1cccc2c1c1ccc3c(c1n2C)C(=O)C=CC3=O [NSC 645330]
- inhibition of thioredoxin reductase alone (thioredoxin reductase): did not inhibit thioredoxin reductase alone
- activity in the thioredoxin reductase/thioredoxin-dependent insulin assay [2]: active
